This is an account of results in patent EP1229025A1, “NOVEL QUINAZOLINE DERIVATIVES” (Japan Energy Corporation, priority 1999, dated 2001).

In this assay the test system is TNF-α production. Nature of the assay: TNF-α production inhibiting test using human PBMC (LPS stimulus, ELISA). The format is cell-based. The following applies: LPS 10 ng/ml, 16 hours, ELISA of culture supernatants. As for the experimental part: Example 145: TNF-α production inhibiting test using human PBMC (peripheral blood mononuclear cells)
Preparation of human PBMC
The blood of a healthy person was taken with a vacuum blood-collecting tube (Nipro neotube) and diluted up to two-fold with physiological saline (Otsuka Pharmaceuticals). To the diluted blood was added 6% dextran T-500 (prepared after dissolution in physiological saline (Otsuka Pharmaceuticals) and sterilization with an autoclave) so as to make a final concentration of 1%. The solution was subjected to tumble mixing and allowed to stand at room temperature for 30 minutes to precipitate the erythrocytes. The supernatant was collected and subjected to centrifugation at 20 °C and at 1,500 rpm for 10 minutes. The cells were suspended in 3 ml of RPMI1640 culture medium (Asahi Technogllas) and overlaid on the solution surface of 3 ml Lymphoprep (NYCOMED). Further, with 1.5 ml of RPMI1640 culture medium being added to the tube which had contained the cell suspension liquid, the cells attached to the tube, which had remained uncollected, were suspended for collection and overlaid on the Lymphoprep previously mentioned. This operation was repeated again. After centrifugation at 20 °C and at 2,000 rpm for 30 minutes, there was collected a fraction of peripheral blood mononuclear cells present in the boundary surface between the Lymphoprep and the RPMI1640 culture medium. The cells were washed twice with 10 ml RPMI1640 culture medium to remove the Lymphoprep and then suspended in a RPMI1640 culture medium added with 10% bovine fetal serum (IRVINE SCIENTIFIC), 100 U/ml penicillin and 100 µg/ml streptomycin (hereinafter referred to as cRPMI1640 culture medium). The number of the cells was measured by Tuerk dying, and the cells, after adjustment to 3 × 10^6 cells/ml, were planted in 100 µl/well on a 96-well plate (FALCON). The cells were cultured at 37 °C under 5%CO2 atmosphere for about 5 hours.
Induction of TNF-α production by LPS stimulus
LPS (E.coli 0111:B4, DIFCO), which had been prepared to 10 mg/ml with water and kept at -20, was diluted to 100 µg/ml with cRPMI1640 culture medium and subjected to sterile filtration. The 100 µg/ml LPS was diluted with cRPMI1640 culture medium to prepare 20 ng/ml LPS. A compound to be tested which was dissolved in DMSO at 1,000-fold concentration was diluted to 500-fold with cRPMI1640 culture medium containing 20 ng/ml LPS and added in 100 µl/well to the cells which had been planted on the previously mentioned 96-well plate (final concentration of LPS: 10 ng/ml). For use as the control group, the solutions were made by diluting DMSO of the same volume as in the test compounds with cRPMI1640 culture medium containing 20 ng/ml LPS, and they were added to the cells. These cells were cultured at 37 °C under 5%CO2 atmosphere for 16 hours.
Determination of TNF-α activity (ELISA method)
To the 96-well plate the mouse anti-human TNF-α antibody (prepared to 2 µg/ml with Coating buffer*^1) was added so as to make 100 µl/well and allowed to stand at 4 °C overnight. After 5-times washing with Wash buffer*^2 (300µl/well), the Blocking buffer*^3 was added to the solutions, which were allowed to stand 37 °C for 2 hours. The culture supernatants were diluted up to 5-fold in the plate (supernatant 20 µl being added to 80 µl of cRPMI1640 culture medium). Simultaneously, for using for a calibration curve, a series of dilution of recombinant human TNF-α was prepared arid allowed to stand 37 °C for 1 hour. After 5-times washing with Wash buffer (300 µl /well), biotinylated rabbit anti-human TNF-α antibody (prepared to 0.25 µg/ml with Antibody diluent*^4) was added so as to make 100 µl /well and allowed to stand at 37 °C for 1 hour. After 5-times washing with Wash buffer (300 µl /well), Streptavidin-Horseradish peroxidase(prepared to 1:4000 with Antibody diluent) was added to make 100 µl /well and allowed to stand at 37 °C for 15 minutes. […]
Background: An ELISA detects its analyte on a solid surface through an enzyme-linked reagent.

Compound `O=[N+]([O-])c1cc2c(NCCc3ccc(Cl)cc3)ncnc2cc1N1CCNCC1` [Example 1, 4-[2-(4-chlorophenyl)ethylamino]-6-nitro-7-(piperazin-1-yl)quinazoline] returned an IC50 of 800 nM.

In turn, `O=[N+]([O-])c1cc2c(NCCc3ccc(Cl)cc3)ncnc2cc1N1CCCNCC1` [Example 2, 4-[2-(4-chlorophenyl)ethylamino]-7-(homopiperazin-1-yl)-6-nitroquinazoline] came in with an IC50 of 2100 nM.

Compound `CN1CCN(c2cc3ncnc(NCCc4ccc(Cl)cc4)c3cc2[N+](=O)[O-])CC1` [Example 3, 4-[2-(4-chlorophenyl)ethylamino]-7-(4-methylpiperazin-1-yl)-6-nitroquinazoline] showed an IC50 of 1400 nM.

`O=[N+]([O-])c1cc2c(NCCc3ccc(Cl)cc3)ncnc2cc1N1CCN(CCO)CC1` [Example 5, 4-[2-(4-chlorophenyl)ethylamino]-7-[4-(2-hydroxyethyl)piperazin-1-yl)-6-nitroquinazoline] returned an IC50 of 1900 nM.

Turning to `O=CN1CCN(c2cc3ncnc(NCCc4ccc(Cl)cc4)c3cc2[N+](=O)[O-])CC1` [Example 6, 4-[2-(4-chlorophenyl)ethylamino]-7-(4-formylpiperazin-1-yl)-6-nitroquinazoline], it took 2500 nM to reach half-maximal inhibition (IC50).

On to `NC1CCN(c2cc3ncnc(NCCc4ccc(Cl)cc4)c3cc2[N+](=O)[O-])CC1` [Example 8, 7-(4-aminopiperidin-1-yl)-4-[2-(4-chlorophenyl)ethylamino]-6-nitroquinazoline], for which the IC50 was found to be 1400 nM.

As to `NCC1CCN(c2cc3ncnc(NCCc4ccc(Cl)cc4)c3cc2[N+](=O)[O-])CC1` [Example 9, 7-(4-aminomethylpiperidin-1-yl)-4-[2-(4-chlorophenyl)ethylamino]-6-nitroquinazoline], half-maximal inhibition (IC50) was put at 1300 nM.

The compound `O=[N+]([O-])c1cc2c(NCCc3ccccc3)ncnc2cc1N1CCNCC1` [Example 10, 6-nitro-4-[2-(phenyl)ethylamino]-7-(piperazin-1-yl)quinazoline] showed an IC50 of 400 nM.

As to `O=[N+]([O-])c1cc2c(NCc3ccccc3)ncnc2cc1N1CCNCC1` [Example 18, 4-(benzylamino)-6-nitro-7-(piperazin-1-yl)quinazoline], half-maximal inhibition (IC50) was put at 400 nM.

Turning to `O=[N+]([O-])c1cc2c(NCc3ccc(F)cc3)ncnc2cc1N1CCNCC1` [Example 25, 4-(4-fluorobenzylamino)-6-nitro-7-(piperazin-1-yl)quinazoline], 400 nM corresponded to half-maximal inhibition (IC50).

In turn, `O=[N+]([O-])c1cc2c(NCCc3ccc(F)cc3)ncnc2cc1N1CCNCC1` [Example 37, 4-[2-(4-fluorophenyl)ethylamino]-6-nitro-7-(piperazin-1-yl)quinazoline] showed an IC50 of 600 nM.

`O=[N+]([O-])c1cc2c(NCCc3cccs3)ncnc2cc1N1CCNCC1` [Example 42, 6-nitro-7-(piperazin-1-yl)-4-[2-(2-thienyl)ethylamino]quinazoline] returned a half-maximal inhibitory concentration (IC50) of 500 nM.

In the case of `O=[N+]([O-])c1cc2c(NCCCc3ccccc3)ncnc2cc1N1CCNCC1` [Example 54, 6-nitro-4-[3-(phenyl)propylamino]-7-(piperazin-1-yl)quinazoline], half-maximal inhibition (IC50) was put at 400 nM.

Regarding `O=[N+]([O-])c1cc2c(NCCc3ccccn3)ncnc2cc1N1CCNCC1` [Example 56, 6-nitro-7-(piperazin-1-yl)-4-[2-(2-pyridyl)ethylamino]quinazoline], the IC50 amounted to 1100 nM.

As to `O=[N+]([O-])c1cc2c(NCCc3cccnc3)ncnc2cc1N1CCNCC1` [Example 57, 6-nitro-7-(piperazin-1-yl)-4-[2-(3-pyridyl)ethylamino]quinazoline], inhibition was half-maximal at 2300 nM (IC50).

Compound `O=[N+]([O-])c1cc2c(NCCc3ccncc3)ncnc2cc1N1CCNCC1` [Example 58, 6-nitro-7-(piperazin-1-yl)-4-[2-(4-pyridyl)ethylamino]quinazoline] had an IC50 of 3500 nM.

In turn, `O=[N+]([O-])c1cc2c(NCc3cccc4ccccc34)ncnc2cc1N1CCNCC1` [Example 59, 4-[(1-naphthyl)methylamino]-6-nitro-7-(piperazin-1-yl)quinazoline] came in with an IC50 of 500 nM.

With `O=[N+]([O-])c1cc2c(NCc3ccc(Cl)cc3)ncnc2cc1N1CCNCC1` [Example 60, 4-(4-chlorobenzylamino)-6-nitro-7-(piperazin-1-yl)quinazoline], half-maximal inhibition (IC50) required 600 nM.

Regarding `O=[N+]([O-])c1cc2c(NCc3ccc(C(F)(F)F)cc3)ncnc2cc1N1CCNCC1` [Example 63, 6-nitro-7-(piperazin-1-yl)-4-[4-(1,1,1-trifluoiomethyl)benzylamino]quinazoline], the IC50 was determined as 1600 nM.

In turn, `Cc1ccc(CNc2ncnc3cc(N4CCNCC4)c([N+](=O)[O-])cc23)cc1` [Example 64, 4-(4-methylbenzylamino)-6-nitro-7-(piperazin-1-yl)quinazoline] gave an IC50 of 400 nM.

Compound `COc1ccccc1CNc1ncnc2cc(N3CCNCC3)c([N+](=O)[O-])cc12` [Example 65, 4-(2-methoxylbenzylamino)-6-nitro-7-(piperazin-1-yl)quinazoline] showed an IC50 of 1200 nM.

Regarding `COc1cccc(CNc2ncnc3cc(N4CCNCC4)c([N+](=O)[O-])cc23)c1` [Example 66, 4-(3-methoxylbenzylamino)-6-nitro-7-(piperazin-1-yl)quinazoline], the 50% inhibitory concentration (IC50) came to 700 nM.

In turn, `COc1ccc(CNc2ncnc3cc(N4CCNCC4)c([N+](=O)[O-])cc23)cc1` [Example 67, 4-(4-methoxylbenzylamino)-6-nitro-7-(piperazin-1-yl)quinazoline] yielded an IC50 of 300 nM.

The compound `COc1ccc(CNc2ncnc3cc(N4CCNCC4)c([N+](=O)[O-])cc23)cc1OC` [Example 68, 4-(3,4-dimethoxylbenzylamino)-6-nitro-7-(piperazin-1-yl)quinazoline] came in with an IC50 of 2400 nM.

Compound `COc1cc(CNc2ncnc3cc(N4CCNCC4)c([N+](=O)[O-])cc23)cc(OC)c1OC` [Example 69, 6-nitro-7-(piperazin-1-yl)-4-(3,4,5-trimethoxylbenzylamino)quinazoline] showed an IC50 of 1800 nM.

On to `O=[N+]([O-])c1cc2c(NCCc3ccccc3Cl)ncnc2cc1N1CCNCC1` [Example 70, 4-[2-(2-chlorophenyl)ethylamino]-6-nitro-7-(piperazin-1-yl)quinazoline], for which the IC50 stood at 600 nM.

`O=[N+]([O-])c1cc2c(NCCc3cccc(Cl)c3)ncnc2cc1N1CCNCC1` [Example 71, 4-[2-(3-chlorophenyl)ethylamino]-6-nitro-7-(piperazin-1-yl)quinazoline] returned an IC50 of 600 nM.

Compound `O=[N+]([O-])c1cc2c(NCCc3ccc(Br)cc3)ncnc2cc1N1CCNCC1` [Example 72, 4-[2-(4-bromophenyl)ethylamino]-6-nitro-7-(piperazin-1-yl)quinazoline] had an IC50 of 400 nM.

`Cc1ccc(CCNc2ncnc3cc(N4CCNCC4)c([N+](=O)[O-])cc23)cc1` [Example 75, 4-[2-(4-methylphenyl)ethylamino]-6-nitro-7-(piperazin-1-yl)quinazoline]: 1900 nM corresponded to half-maximal inhibition (IC50).

With `COc1ccc(CCNc2ncnc3cc(N4CCNCC4)c([N+](=O)[O-])cc23)cc1` [Example 78, 4-[2-(4-methoxyphenyl)ethylamino]-6-nitro-7-(piperazin-1-yl)quinazoline], the IC50 stood at 1100 nM.

Compound `COc1ccc(CCNc2ncnc3cc(N4CCNCC4)c([N+](=O)[O-])cc23)cc1OC` [Example 79, 4-[2-(3,4-dimethoxyphenyl)ethylamino]-6-nitro-7-(piperazin-1-yl)quinazoline] yielded an IC50 of 2300 nM.

As usually defined, the IC50 is the concentration needed to halve the response being measured. A lower IC50 goes with inhibition by little substance.
